Experimental data as given in patent publication US20230286973A1, “PROTEIN SECRETION INHIBITORS” (KEZAR LIFE SCIENCES, priority 2020, published 2023).

Experiments:
[1] = test system: PD1-ss+10aa/Gaussia Luciferase; assay: Dox-Induced PD1-ss-Gluc Assay; type: cell-based; conditions: 24 hr Dox induction; 293FRT/TO cells; read-out: 24 hr Dox Inducible PD1ssGluc 293FRT/TO: Mean IC50
Method in brief: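 The cell line was made by transfecting Flp-In 293 T-REx cells with a PD1 signal sequence+10aa–Gaussia luciferase fusion under T-REx control and selecting with hygromycin and blasticidin. Cells were seeded, and next day compound plus doxycycline was added at 37 °C, 5% CO2.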

[2] = test system: TNFα-FL/Gaussia Luciferase; assay: Dox Induced TNFα-FL-Gluc Assay; type: cell-based; conditions: for IC50: 24 hr Dox induction, 293FRT/TO cells, read-out: 24 hr Dox Inducible TNFaFLGluc 293FRT/TO: Mean IC50; for 24 hr Dox Inducible TNFaFLGluc 293FRT/TO: TNF/PD1: ratio of TNFaFLGluc IC50 to PD1ssGluc IC50
Method in brief: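 Cell line: stable Flp-In 293 T-REx, TNFα-FL(1-233)-Gaussia luciferase fusion, T-REx-inducible. Plated day -1; compounds in DMSO/media + doxycycline, 37 °C, 5% CO2. Undefined stereocentres = mixture tested.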

[3] = test system: HER3-ss+4aa/Gaussia Luciferase; assay: Dox-Induced Her3-ss-Gluc Assay; type: cell-based; conditions: 24 hr Dox induction; 293FRT/TO cells; read-out: 24 hr Dox Inducible Her3(ss + 4)Gluc 293FRT/TO: Mean IC50
Method in brief: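 Flp-In 293 T-REx cells, stable HER3-ss+4aa/Gaussia luciferase insert, hygromycin/blasticidin selected; plated day before; compound in DMSO/media + doxycycline; 37° C., 5% CO2.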

[4] = test system: IL-2-FL/Gaussia Luciferase; assay: Dox Induced IL2-FL-Gluc Assay; type: cell-based; conditions: for IC50: 24 hr Dox induction, 293FRT/TO cells, read-out: 24 hr Dox Inducible IL2FLGluc 293FRT/TO: Mean IC50; for 24 hr Dox Inducible IL2FLGluc 293FRT/TO: IL2/PD1: ratio of IL2FLGluc IC50 to PD1ssGluc IC50
Method in brief: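 Stable Flp-In 293 T-REx line, Tet-regulated IL-2 (aa 1-153)–Gaussia luciferase fusion; hygromycin/blasticidin selected. Plated day -1; compound + doxycycline added next day; 37° C, 5% CO2.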

[5] = test system: multiple myeloma cell line NCI-H929; assay: H929 Cell Viability Assay; type: cell-based, human; conditions: Homo sapiens, NCI-H929, 48 h, NCI-H929 cells, Celltiter-Glo
Method in brief: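 Cells in RPMI 1640/10% FBS; compound dilutions in DMSO/media; 48 h, 37° C, 5% CO2; CellTiter-Glo luciferase readout for viability.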

[6] = test system: multiple myeloma cell line U266B1; assay: U266 Cell Viability Assay; type: cell-based, human; conditions: Homo sapiens, U-266, 48 h, U266B1 cells, Celltiter-Glo
Method in brief: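 Luminescent ATP read-out (CellTiter-Glo) after 48 h compound exposure at 37° C., 5% CO2; cells maintained in RPMI 1640/10% FBS/2 mM glutamine/pen-strep, compounds diluted in DMSO/media.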

[7] = Liver Microsome Stability Assay (rat); conditions: rat liver microsomes, with NADPH, 1.0 uM compound
Experimental: (§1) Stability of a compound was assessed in the presence of liver microsomes from various sources—mouse, rat, monkey and human liver microsomes. 1.0 uM compound, 0.4% DMSO in 0.1 M Potassium Phosphate with 1.0 mg/mL liver microsomes, were incubated at 37° C. with or without 1 mM NADPH. The samples were quenched at 0, and 30 minutes.

[8] = Liver Microsome Stability Assay (mouse); conditions: mouse liver microsomes, with NADPH, 1.0 uM compound
Experimental: as §1

[9] = Liver Microsome Stability Assay (human); conditions: human liver microsomes, with NADPH, 1.0 uM compound
Experimental: as §1

[10] = Liver Microsome Stability Assay (monkey); conditions: monkey liver microsomes, with NADPH, 1.0 uM compound
Experimental: as §1

## CC(=O)N1CCC(Oc2ccc(N3CCC[C@@H]3c3csc(NC(=O)c4cccn4Cc4ccnc(F)c4)n3)cn2)CC1 [Compound A155, (R)-N-(4-(1-(6-((1-acetylpiperidin-4-yl)oxy)pyridin-3-yl)pyrrolidin-2-yl)thiazol-2-yl)-1-((2-fluoropyridin-4-yl)methyl)-1H-pyrrole-2-carboxamide]
[1]
  IC50: 80 nM
[2]
  IC50: 1340 nM
  24 hr Dox Inducible TNFaFLGluc 293FRT/TO: TNF/PD1: 16.8
[3]
  IC50: 86.6 nM
[4]
  IC50: 189 nM
  24 hr Dox Inducible IL2FLGluc 293FRT/TO: IL2/PD1: 2.4
[5]
  EC50: 2860 nM
[6]
  EC50: > 25000 nM
[7]
  Liver Microsome Stability (Multiple Species): Rat - % Remaining after 30 min w/NADPH: 8.23%
[8]
  Liver Microsome Stability (Multiple Species): Mouse - % Remaining after 30 min w/NADPH: 16.9%
[9]
  Liver Microsome Stability (Multiple Species): Human - % Remaining after 30 min w/NADPH: 1.07%
[10]
  Liver Microsome Stability (Multiple Species): Monkey - % Remaining after 30 min w/NADPH: 0.17%

## NC(=O)N1CCC(Oc2ccc(N3CCC[C@@H]3c3csc(NC(=O)c4cccn4Cc4ccnc(F)c4)n3)nc2)CC1 [Compound A156, (R)-4-((6-(2-(2-(1-((2-fluoropyridin-4-yl)methyl)-1H-pyrrole-2-carboxamido)thiazol-4-yl)pyrrolidin-1-yl)pyridin-3-yl)oxy)piperidine-1-carboxamide]
[1]
  IC50: 115 nM
[2]
  IC50: 1560 nM
  24 hr Dox Inducible TNFaFLGluc 293FRT/TO: TNF/PD1: 13.5
[3]
  IC50: 273 nM
[4]
  IC50: 349 nM
  24 hr Dox Inducible IL2FLGluc 293FRT/TO: IL2/PD1: 3
[5]
  EC50: 2960 nM
[6]
  EC50: > 25000 nM
[7]
  Liver Microsome Stability (Multiple Species): Rat - % Remaining after 30 min w/NADPH: 34.1%
[8]
  Liver Microsome Stability (Multiple Species): Mouse - % Remaining after 30 min w/NADPH: 38.2%
[9]
  Liver Microsome Stability (Multiple Species): Human - % Remaining after 30 min w/NADPH: 10.3%
[10]
  Liver Microsome Stability (Multiple Species): Monkey - % Remaining after 30 min w/NADPH: 1.75%

## O=C(Nc1nc([C@H]2CCCN2c2ccc(OC3CSC3)cc2)cs1)c1cccn1Cc1ccnc(F)c1 [Compound A157, (R)-1-((2-fluoropyridin-4-yl)methyl)-N-(4-(1-(4-(thietan-3-yloxy)phenyl)pyrrolidin-2-yl)thiazol-2-yl)-1H-pyrrole-2-carboxamide]
[1]
  IC50: 42.2 nM
[2]
  IC50: 407 nM
  24 hr Dox Inducible TNFaFLGluc 293FRT/TO: TNF/PD1: 9.64
[3]
  IC50: 49.7 nM
[4]
  IC50: 52.2 nM
  24 hr Dox Inducible IL2FLGluc 293FRT/TO: IL2/PD1: 1.2
[5]
  EC50: 1470 nM
[6]
  EC50: > 25000 nM
[7]
  Liver Microsome Stability (Multiple Species): Rat - % Remaining after 30 min w/NADPH: 2.44%
[8]
  Liver Microsome Stability (Multiple Species): Mouse - % Remaining after 30 min w/NADPH: 0.84%
[9]
  Liver Microsome Stability (Multiple Species): Human - % Remaining after 30 min w/NADPH: 22.9%
[10]
  Liver Microsome Stability (Multiple Species): Monkey - % Remaining after 30 min w/NADPH: 13.2%

## O=C(Nc1nc([C@H]2CCCN2c2ccc(OC3CS(=O)(=O)C3)cc2)cs1)c1cccn1Cc1ccnc(F)c1 [Compound A158]
[1]
  IC50: 90.5 nM
[2]
  IC50: 1060 nM
  24 hr Dox Inducible TNFaFLGluc 293FRT/TO: TNF/PD1: 11.7
[3]
  IC50: 128 nM
[4]
  IC50: 130 nM
  24 hr Dox Inducible IL2FLGluc 293FRT/TO: IL2/PD1: 1.4
[5]
  EC50: 3320 nM
[6]
  EC50: > 25000 nM
[7]
  Liver Microsome Stability (Multiple Species): Rat - % Remaining after 30 min w/NADPH: 24.2%
[8]
  Liver Microsome Stability (Multiple Species): Mouse - % Remaining after 30 min w/NADPH: 14.5%
[9]
  Liver Microsome Stability (Multiple Species): Human - % Remaining after 30 min w/NADPH: 8.23%
[10]
  Liver Microsome Stability (Multiple Species): Monkey - % Remaining after 30 min w/NADPH: 1.84%

## NC(=O)N1CCC(Oc2ccc(N3CCC[C@@H]3c3csc(NC(=O)c4cccn4Cc4ccnc(F)c4)n3)cn2)CC1 [Compound A159, (R)-4-((5-(2-(2-(1-((2-fluoropyridin-4-yl)methyl)-1H-pyrrole-2-carboxamido)thiazol-4-yl)pyrrolidin-1-yl)pyridin-2-yl)oxy)piperidine-1-carboxamide]
[1]
  IC50: 27.9 nM
[2]
  IC50: 790 nM
  24 hr Dox Inducible TNFaFLGluc 293FRT/TO: TNF/PD1: 28.3
[3]
  IC50: 35.8 nM
[4]
  IC50: 80.6 nM
  24 hr Dox Inducible IL2FLGluc 293FRT/TO: IL2/PD1: 2.9
[5]
  EC50: 1620 nM
[6]
  EC50: > 25000 nM
[7]
  Liver Microsome Stability (Multiple Species): Rat - % Remaining after 30 min w/NADPH: 19.7%
[8]
  Liver Microsome Stability (Multiple Species): Mouse - % Remaining after 30 min w/NADPH: 36%
[9]
  Liver Microsome Stability (Multiple Species): Human - % Remaining after 30 min w/NADPH: 9.01%
[10]
  Liver Microsome Stability (Multiple Species): Monkey - % Remaining after 30 min w/NADPH: 3.91%
